Measurements from patent publication US20060281695A1, “Control of parasites in animals by N-[(phenyloxy)phenyl]-1,1,1-trifluoromethanesulfonamide and N-[(phenylsulfanyl)phenyl]-1,1,1-trifluoromethanesulfonamide derivatives” (priority 2005, published 2006).

How the values were obtained:
[1] = system: cat flea (Ctenocephalides felis); assay: Ctenocephalides felis adulticide assay: single dose screen on treated glass surface (% mortality at 1.26 μg/cm^2, 24 hours); assay type: in vivo; details: for Ctenocephalides felis Mortality (%) 24 h: in vivo; for mortality at 1.26 µg/cm2, 1.26 µg/cm2: Ctenocephalides felis, 24 h, read-out: Ctenocephalides felis Mortality (%) 24 h
Experimental: (§1) The LC50 value is the concentration, expressed as μg/cm^2, that was required to kill 50% of the sample of cat fleas on contact with the tested compound. Certain tests are also reported as the percent of a sample of cat fleas that were killed at a concentration of 1.26 μg/cm^2 (“% mortality”), for the compounds tested in this way.
b) Ctenocephalides felis Adulticide Assay: C.felis single dose screen
Mortality of fleas is the primary endpoint in the assay. […] The concentration chosen (1.26 μg/cm^2) is higher than that known to kill 90% of cat fleas (LC90) using the reference compound, permethrin.
(§2) The test species employed was the cat flea (Ctenocephalides felis). The strain used was obtained from external suppliers as pupae and held in the laboratory under testing conditions until the adults had emerged. Fifteen (15) fleas were used in a minimum of four replicates against a single concentration level (approximately 60 fleas). The insects were selected to be in the adult life stage, aged between 3 and 7 days post emergence.
The compounds to be tested were supplied as solids and were prepared in acetone as described below prior to testing. Samples were stored in a refrigerator (5±1° C.) unless otherwise specified.
During the mortality testing, the temperature was maintained at 25±1° C. Humidity was maintained at 75±5%. The base (area=159 mm^2) of a 100 mL glass Erlenmeyer (conical) flask provided the treatment surface. Flasks were pre-treated with Coatasil™ glass treatment to maximise bio-availability of test compounds by preventing them from binding to glass the surface. The base of the 100 mL Erlenmeyer flask was treated with 0.5 mL of test sample in acetone and gently swirled. This volume was sufficient to cover the base of the flask. Flasks were left to dry for 24 hours before flea exposure.
Adult cat fleas were placed into a sorting chamber, which allowed fleas to jump into the Erlenmeyer flasks. Fifteen (15) adult cat fleas were collected in each flask. The top of the flasks were then covered in Parafilm™ and small holes were made to allow gas exchange. A 0.5 mL volume of acetone as a solvent control was applied to the base of an Erlenmeyer flask and the testing proceeded in the same manner described above. […] Pooled 24 hour mortality data were converted to percentages and are summarized by Table 4, below.
(§3) In Table 7, provided below, are listed the Haemonchus contortus LD99 values (measured in micrograms/mL), the Ctenocephalides felis rapid screening values (measured in % mortality), the Ctenocephalides felis LC50 values (measured in micrograms/cm^2) and the Rhipicephalus sanguineus rapid screening values (measured in % mortality) for selected compounds in accordance with the present invention.

[2] = system: cat flea (Ctenocephalides felis); assay: Ctenocephalides felis adulticide assay: dose response on treated glass surface (LC50, 24 hours); assay type: in vivo; details: adult cat fleas, 24 h mortality, probit analysis
Experimental: as §1
c) Ctenocephalides felis Adulticide Assay: C. felis dose response The purpose of this example is to determine the LC50 when cat fleas are contacted with a glass surface treated with sample compounds or formulations prepared as described above. Mortality of fleas is defined as follows: fleas are considered dead if they don't move or are on their sides and unable to walk or right themselves. LC50: Lethal Concentration 50— concentration of glass surface treatment at which 50% of the cat fleas are killed.
as §2, with “for each dose” for “against a single concentration”, “(total of” for “(approximately”, “fleas per dose level).” for “fleas).”
The compounds to be tested were dissolved in acetone just prior to testing. Samples of compounds were stored in a refrigerator (5±1° C.) unless otherwise specified. During the mortality testing, the temperature was maintained at 25±1° C. Humidity was maintained at 75±5%. The base (area=159 mm^2) of a 100 mL glass Erlenmeyer (conical) flask provided the treatment surface. Flasks were pre-treated with Coatasil™ glass treatment to maximise bio-availability of test compounds by preventing them from binding to the glass surface.
Six dose levels (concentrations) of test sample, in the form of a serial dilution, were derived from a pilot study and covered a range that produced very low to very high mortality. The base of the 100 mL Erlenmeyer flask was treated with 0.5 mL of test sample in acetone and gently swirled. This volume was sufficient to cover the base of the flask. Flasks were left to dry for 24 hours before flea exposure. Adult cat fleas were lightly anaesthetised by cooling and then placed into a sorting chamber, which allowed fleas to revive and jump into the Erlenmeyer flasks. Fifteen (15) adult cat fleas were collected in each flask. The top of the flasks were then covered in Parafilm™ and small holes made to allow gas exchange. A 0.5 mL volume of acetone was applied to the base of an Erlenmeyer flask and the testing proceeded in the same manner described above. Cat fleas in the treatment containers were held under testing conditions for 24 hours. Mortality resulting from the treatments was recorded at 24 hours. […] 3rd ed. Cambridge Univ. Press, London (1971)].
as §3

Haemonchus contortus = Haemonchus contortus larvacidal (larval development) assay, LD99; assay type: in vitro
Experimental: The LD99 value is the dose, expressed as […], that was required to kill 99% of a sample of Haemonchus contortus.
a) Haemonchus Contortus Larvacidal Assay:
The effect of compounds on larval development was determined in the assay described by Gill et al. [International Journal of Parasitology 25:463-470 (1995)]. Briefly, in this assay, nematode eggs are applied to the surface of an agar matrix containing the test compound and then allowed to develop through to the L3, infective stage (6 days). The wells for each dilution of every compound (from highest to lowest concentration) are inspected to determine the well number corresponding to the lowest concentration at which development is inhibited in 99% of the nematode larvae present (LD99). Because well numbers correspond to a two-fold serial dilution of each compound, a titre (dilution factor) is generated as 2^n−1, where n is the well number. By dividing the highest concentration tested by the titre an LD99 value can be obtained, representing the concentration required to inhibit development in 99% of the nematode larvae present. The compounds supplied as solid and viscous liquids are dissolved in DMSO. Twelve serial one-half dilutions in DMSO solution are prepared from the stock solution, each of which is then diluted 1/5 with water. Aliquots (10 μl) of each dilution are transferred to the bioassay plates to give a final concentration range of 0.024 to 50 μg/ml.
as §3

[3] = system: Brown Dog Tick (Rhipicephalus sanguineus); assay: Topical application on brown dog ticks, single dose screen (% mortality at 24 hours); assay type: in vivo; details: adult brown dog ticks, topical 1 μL in acetone on abdomen, single dose 10 μg per tick
Experimental: d) Topical Application On Brown Dog Ticks (Rhipicephalus sanguineus)
The aim of the test is to determine the presence of significant acaricidal activity in sample compounds or formulations when applied topically on brown dog ticks. A tick is defined as dead if it gives no apparent response when: (i) touched lightly and (ii) then observed for 1 minute. To assess the experimental compound for acaricidal activity, a single dose level is chosen based on known results from previous experiments with a commercially available active reference compound.
In the present example, both permethrin and fipronil were employed as reference compounds. The insect species tested was the Brown Dog Tick (Rhipicephalus sanguineus). Mixed sex adult ticks were used for tests. The strain used was cultured from a field strain and supplied as unfed adult ticks (mixed sex). Ticks were maintained in controlled conditions (temp. 18°±2° C., humidity 75±5% RH).
Test compounds (formulations or active ingredients) were stored in a refrigerator (5±1° C.) unless otherwise specified. The temperature was maintained at 25±1° C. and the humidity was ambient. The screening dose chosen was higher than that known kill 90% of insects (LD90) using the reference compound. In the case of topical application of active compounds on adult ticks, the reference compound was fipronil and the dose chosen was 10 μg of active per tick (=10 μg of fipronil/1 μl of acetone). Ticks were each treated on the abdomen with 1 μL of a single dose level of test sample in acetone; ten ticks were treated with solvent only (acetone) in each test. Tests were replicated 4 times (total of 40 ticks treated). Ticks were held in recovery containers maintained under appropriate rearing conditions for 24 hours. Mortality resulting from the treatments was recorded at 24 hours. Pooled 24 hour mortality data were converted to percentages.
as §3

| SMILES | Ctenocephalides felis Mortality (%) 24 h [1] [%] | Ctenocephalides felis LC50 [2] [μg/cm^2] | Haemonchus contortus LD99 (Haemonchus contortus) [µg/mL] | mortality at 1.26 µg/cm2, 1.26 µg/cm2 [1] [%] | Rhipicephalus sanguineus Mortality (%) 24 h [3] [%] |
| --- | --- | --- | --- | --- | --- |
| O=S(=O)(Nc1ccc(Cl)cc1Oc1ccc(F)cc1)C(F)(F)F [Compound 26] | 100 | 0.33 | – | – | – |
| O=S(=O)(Nc1ccc(Cl)cc1Sc1ccccc1)C(F)(F)F [Compound 59] | 100 | 0.97 | – | – | – |
| O=S(=O)(Nc1ccc(Cl)cc1Oc1ccc(Cl)cc1Cl)C(F)(F)F [Compound 1, N-[4-Chloro-2-(2,4-dichlorophenoxy)phenyl]-1,1,1-trifluoromethanesulfonamide] | – | 0.32 | 1.5 | 100 | 68 |
| O=S(=O)(Nc1ccc(Cl)cc1Sc1ccc(F)cc1)C(F)(F)F [Compound 20] | 100 | 0.13 | 13.0 | – | 95 |
| O=S(=O)(Nc1ccc(Cl)cc1Oc1ccc(F)c(F)c1)C(F)(F)F [Compound 16] | 100 | 0.78 | 11.0 | – | – |
| O=S(=O)(Nc1ccc(Cl)cc1Oc1ccc(Cl)cc1)C(F)(F)F [Compound 5] | 100 | 0.66 | 11.0 | – | – |
| O=S(=O)(Nc1ccc(Cl)cc1Oc1cccc(F)c1)C(F)(F)F [Compound 25] | 100 | 0.73 | – | – | – |
| Cc1ccccc1Oc1cc(Cl)ccc1NS(=O)(=O)C(F)(F)F [Compound 21] | 100 | 0.12 | 15.0 | – | 90 |
| O=S(=O)(Nc1cc(C(F)(F)F)ccc1Oc1cccc(C(F)(F)F)c1)C(F)(F)F [Compound 9] | 94 | 0.09 | 2.5 | – | 25 |
| O=S(=O)(Nc1ccc(Cl)cc1Oc1ccccc1F)C(F)(F)F [Compound 14] | 100 | 0.05 | 13.0 | – | 98 |
| O=S(=O)(Nc1cc(Cl)ccc1Oc1ccc(Cl)cc1Cl)C(F)(F)F [Compound 8] | 62 | 0.59 | 2.75 | – | – |
| O=S(=O)(Nc1ccc(Cl)cc1Sc1ccc(Cl)cc1)C(F)(F)F [Compound 12, N-[4-Chloro-2-((4-chlorophenyl)sulfanyl)phenyl]-1,1,1-trifluoromethanesulfonamide] | – | 0.15 | 2.8 | 100 | 50 |
| O=S(=O)(Nc1ccc(Cl)cc1Oc1ccc(F)cc1F)C(F)(F)F [Compound 4] | 98 | 0.27 | 12.0 | – | 83 |
| CCc1ccccc1Oc1cc(Cl)ccc1NS(=O)(=O)C(F)(F)F [Compound 38] | 95 | 0.75 | – | – | – |
| O=S(=O)(Nc1ccc(C(F)(F)F)cc1Oc1cccc(C(F)(F)F)c1)C(F)(F)F [Compound 55] | 100 | 1.88 | – | – | – |
| O=S(=O)(Nc1ccc(Cl)cc1Sc1cccc(Cl)c1)C(F)(F)F [Compound 15] | 100 | 0.30 | 5.5 | – | – |
| O=S(=O)(Nc1ccc(Cl)cc1Sc1ccccc1F)C(F)(F)F [Compound 68] | 100 | 0.59 | – | – | 55 |
| O=S(=O)(Nc1ccc(Cl)cc1Oc1ccccc1C(F)(F)F)C(F)(F)F [Compound 2] | 100 | 0.19 | 5.5 | – | 28 |
| O=S(=O)(Nc1cc(C(F)(F)F)ccc1Oc1ccc(F)cc1)C(F)(F)F [Compound 30] | 100 | 0.71 | – | – | – |
